In patent US10220092B2, “Devices, systems and methods for optogenetic modulation of action potentials in target cells” (The Board of Trustees of the Leland Stanford Junior …, priority 2013, dated 2019):

Tests used:
[1] = test system: acid-sensing ion channels (ASICs); test: Pharmacological blockade of the ChR2 bystander current by the ASIC inhibitor amiloride; type: cell-based, mice
Method: Whole cell patch clamp recordings on cortical and hippocampus neurons were performed on an upright Leica DM-LFSA microscope. Slices were continually perfused in warmed (33° C.) ACSF at a rate of 7 ml min^−1 Patching was performed in the presence of synaptic transmission blockers 6-cyano-7-nitroquinoxaline-2,3-dione (CNQX, 50 μM) and D(−)-2-amino-5-phosphonovaleric acid (APV, 25 μM) and gabazine (25 μM) (Tocris Bioscience) except for during testing of electrically-evoked synaptic responses. For amiloride experiments, amiloride was added to the ACSF at a concentration of 500 μM (Tocris). Borosilicate glass (Sutter Instruments) pipette resistances were pulled to 3-6 MΩ and filled with potassium gluconate intracellular solution (130 mM K Gluconate, 10 mM KCl, 10 mM HEPES, 10 mM EGTA, 2 mM MgCl2, pH adjusted with KOH to 7.3). Voltage and current clamp electrophysiological recordings and manipulations were performed using pClamp (Axon Instruments). Cells were held at −70 mV for all experiments. Cells with leak current greater than −300 pA or pipette resistance greater than 30 MΩ were excluded. […]

[2] = test system: cultured hippocampal neurons; test: Whole cell patch clamp of cultured hippocampal neurons expressing eArch3.0-ASIC2a (Champ) constructs; type: cell-based, rat
Excerpt: Construct design for hippocampal neurons: The protein sequence of rat ASIC2a (Genbank accession number NM_001034014.1) was human codon optimized and synthesized by Genscript. eArch3.0 and ASIC-YFP fusions were cloned into an AAV2 backbone either under a CaMKIIα or human synapsin promoter. The trafficking signal (TS) and endoplasmic reticulum export signal (ER) sequences were appropriately added to enhance membrane trafficking. All maps and sequence details are on the website: www(dot)optogenetics(dot)org.
Hippocampal neuron culture and calcium phosphate transfection (as per Mattis et al. (Nat Methods 2011; 9: 159-72)). Primary cultured hippocampal neurons were prepared from PO Sprague-Dawley rat pups (Charles River). CA1 and CA3 were isolated, digested with 0.4 mg ml^−1 papain (Worthington), and plated onto glass coverslips precoated with 1:30 Matrigel (Becton Dickinson Labware). […]
Electrophysiological recordings in cultured hippocampal neurons: Whole cell patch clamp recordings were performed on cultured hippocampal neurons 4-8 days post-transfection on an upright Leica DM-LFSA microscope (Mattis et al, 2011). […] Data acquisition, current and light manipulations were controlled using pClamp (Axon Instruments) via a Digidata 1440A interface and analyzed using ClampFit software (Axon Instruments). […]

Xenopus laevis oocytes = test: Two-electrode voltage clamp of CsR proton pump co-expressed with rat ASICs in oocytes; type: cell-based; settings: co-expressed with CsRT46N; 560 nm, 0.1 mM MOPS, pH 7.5
Method: Two-component optogenetics experiments. Construct design and expression in Xenopus laevis oocytes: The coding sequences for rat ASICs (in pRSSP6009) were provided by Stefan Grander (Aachen). The pRSSP6009 plasmid coding for ASICs and the pGEM plasmid coding for Coccomyxa subellipsoidea C-169 Rhodopsin CsRT46N were linearized by MulI site in pRSSP 6009 and by NheI in pGEM. After transcription into RNA using T7 (pGEM) or SP6 (pRSSP6009) mMessage mMachine Kit (Ambion Inc, Texas, USA) 32 ng of capped RNA encoding CsR pump and one type of ASIC were co-injected into Xenopus leavis oocytes with a molar ratio of 1:1 pump:channel for ASIC1 and ASIC2a and a molar ratio of 1:2 for ASIC3. Oocytes were incubated for 3 days at 18° C. in ORI solution with 1 μM all-trans retinal (Tsunoda & Hegemann, 2009).
Two-electrode voltage clamp measurements: TEVC measurements on X. laevis oocytes were performed using a GeneClamp 500 amplifier (Axon Instruments, Union City). Data acquisition, buffer exchange and light triggering were controlled with pClamp software via a Digidata 1322A interface (Molecular Devices, Sunnyvale). […] For pH titration, buffer solutions were adjusted with 5 mM MOPS/MES/Citrate over the range of pH 8.0 to 4.0, and were subsequently compared with photocurrents measured at 0.1 mM MOPS at pH 7.5

Molecule: N=C(N)NC(=O)c1nc(Cl)c(N)nc1N [amiloride]
- Magnitude of light-evoked bystander current, relative to baseline value ([1]; 500 μM amiloride applied for 20 minutes, hippocampal ChR2 bystander neurons, 15 s light pulse): ~50%
- Membrane resistance during amiloride application ([1]; 500 μM amiloride, absence of any illumination): increase in membrane resistance

Molecule: Champ4.0: eArch3.0 and ASIC2a separated during protein translation by the ribosomal skip sequence p2A; SEQ ID NO:34
- Presence and reliability of the inward ASIC-mediated current component ([2]; head-to-head comparison, increasing molecular separation, 0.1 mM buffer): occasionally saw large ASIC currents
- Cell health measures (leak current, membrane resistance, pipette resistance, resting membrane potential) across groups ([2]; one-way ANOVA across 5 groups): no significant differences

B1: ASIC3: rat acid-sensing ion channel co-expressed with CsR in oocytes (protein, UniProt O35240 1-533, looked up)
Acid-sensing ion channel 3: MKPRSGLEEAQRRQASDIRVFASSCTMHGLGHIFGPGGLTLRRGLWATAVLLSLAAFLYQVAERVRYYGEFHHKTTLDERESHQLTFPAVTLCNINPLRRSRLTPNDLHWAGTALLGLDPAEHAAYLRALGQPPAPPGFMPSPTFDMAQLYARAGHSLEDMLLDCRYRGQPCGPENFTVIFTRMGQCYTFNSGAHGAELLTTPKGGAGNGLEIMLDVQQEEYLPIWKDMEETPFEVGIRVQIHSQDEPPAIDQLGFGAAPGHQTFVSCQQQQLSFLPPPWGDCNTASLDPDDFDPEPSDPLGSPRPRPSPPYSLIGCRLACESRYVARKCGCRMMHMPGNSPVCSPQQYKDCASPALDAMLRKDTCVCPNPCATTRYAKELSMVRIPSRASARYLARKYNRSESYITENVLVLDIFFEALNYEAVEQKAAYEVSELLGDIGGQMGLFIGASLLTILEILDYLCEVFQDRVLGYFWNRRSAQKRSGNTLLQEELNGHRTHVPHLSLGPRPPTTPCAVTKTLSASHRTCYLVTRL
- Inactivation in sustained light (Xenopus laevis oocytes): strong inactivation
